How the values were obtained:
Adenosine receptor A2a = Adenosine receptor A2a (Homo sapiens, UniProt P29274); assay: DRUGMATRIX: Adenosine A2A radioligand binding (ligand: […]); assay type: cell membranes, HEK293, Membrane; conditions: hek293; Not Active = under 50% inhibition at 10 µM
[1] = target: T1, 3-hydroxy-3-methylglutaryl-coenzyme A reductase (Homo sapiens, UniProt P04035); design: species or system Escherichia coli;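 note: enzyme inhibition assay of HMG-CoA reductase using radiolabeled [14C]HMG-CoA as substrate; in other assays of this panel Not Active means under 50% inhibition at 10 µM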
T1 sequence (P04035 whole entry): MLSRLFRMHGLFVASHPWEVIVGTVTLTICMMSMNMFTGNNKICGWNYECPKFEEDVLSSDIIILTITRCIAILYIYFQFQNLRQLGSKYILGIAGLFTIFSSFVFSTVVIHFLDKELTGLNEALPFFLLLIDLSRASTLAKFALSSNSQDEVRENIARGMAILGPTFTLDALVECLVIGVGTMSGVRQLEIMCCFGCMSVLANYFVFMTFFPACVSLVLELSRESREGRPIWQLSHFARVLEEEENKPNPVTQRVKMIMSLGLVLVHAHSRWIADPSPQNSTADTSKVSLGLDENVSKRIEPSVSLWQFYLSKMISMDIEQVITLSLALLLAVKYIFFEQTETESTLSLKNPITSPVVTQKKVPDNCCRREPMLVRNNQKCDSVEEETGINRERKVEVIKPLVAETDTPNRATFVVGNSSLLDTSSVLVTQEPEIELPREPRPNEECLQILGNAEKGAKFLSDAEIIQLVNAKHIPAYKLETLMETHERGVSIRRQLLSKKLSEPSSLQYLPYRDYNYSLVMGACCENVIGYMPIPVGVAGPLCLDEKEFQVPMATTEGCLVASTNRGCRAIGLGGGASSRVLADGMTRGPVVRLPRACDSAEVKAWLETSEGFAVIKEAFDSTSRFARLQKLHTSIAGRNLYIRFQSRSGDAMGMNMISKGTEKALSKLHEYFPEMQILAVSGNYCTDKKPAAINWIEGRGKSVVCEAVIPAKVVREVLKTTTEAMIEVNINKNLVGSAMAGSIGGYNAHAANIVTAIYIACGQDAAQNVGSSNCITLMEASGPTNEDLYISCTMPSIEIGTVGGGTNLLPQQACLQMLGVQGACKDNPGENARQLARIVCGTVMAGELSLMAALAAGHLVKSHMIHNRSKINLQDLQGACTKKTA

[2] = target: T2, Muscarinic acetylcholine receptor M4 (Homo sapiens, UniProt P08173); assay type: cell membranes, CHO-K1, Membrane; conditions: cho-k1; note: in other assays of this panel Not Active means under 50% inhibition at 10 µM
T2 sequence (P08173 whole entry): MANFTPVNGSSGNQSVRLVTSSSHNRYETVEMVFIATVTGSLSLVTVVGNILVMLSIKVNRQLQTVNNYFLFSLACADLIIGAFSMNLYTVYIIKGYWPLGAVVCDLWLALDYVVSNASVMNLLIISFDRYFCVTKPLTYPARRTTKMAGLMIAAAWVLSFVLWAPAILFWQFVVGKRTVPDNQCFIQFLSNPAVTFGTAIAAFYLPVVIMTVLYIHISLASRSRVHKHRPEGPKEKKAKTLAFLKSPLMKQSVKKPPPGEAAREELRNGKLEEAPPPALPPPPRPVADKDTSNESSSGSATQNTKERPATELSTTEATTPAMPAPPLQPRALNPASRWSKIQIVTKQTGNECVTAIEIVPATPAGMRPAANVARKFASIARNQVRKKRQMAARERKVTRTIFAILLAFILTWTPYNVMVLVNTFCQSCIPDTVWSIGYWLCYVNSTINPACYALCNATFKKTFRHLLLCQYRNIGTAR

[3] = target: T3, Amine oxidase [flavin-containing] A (Homo sapiens, UniProt P21397); assay: DRUGMATRIX: Monoamine Oxidase MAO-A enzyme inhibition (substrate: Kynuramine); design: species or system BTI-TN-5B1-4; conditions: bti-tn-5b1-4; Not Active = under 50% inhibition at 10 µM
T3 sequence (P21397 whole entry): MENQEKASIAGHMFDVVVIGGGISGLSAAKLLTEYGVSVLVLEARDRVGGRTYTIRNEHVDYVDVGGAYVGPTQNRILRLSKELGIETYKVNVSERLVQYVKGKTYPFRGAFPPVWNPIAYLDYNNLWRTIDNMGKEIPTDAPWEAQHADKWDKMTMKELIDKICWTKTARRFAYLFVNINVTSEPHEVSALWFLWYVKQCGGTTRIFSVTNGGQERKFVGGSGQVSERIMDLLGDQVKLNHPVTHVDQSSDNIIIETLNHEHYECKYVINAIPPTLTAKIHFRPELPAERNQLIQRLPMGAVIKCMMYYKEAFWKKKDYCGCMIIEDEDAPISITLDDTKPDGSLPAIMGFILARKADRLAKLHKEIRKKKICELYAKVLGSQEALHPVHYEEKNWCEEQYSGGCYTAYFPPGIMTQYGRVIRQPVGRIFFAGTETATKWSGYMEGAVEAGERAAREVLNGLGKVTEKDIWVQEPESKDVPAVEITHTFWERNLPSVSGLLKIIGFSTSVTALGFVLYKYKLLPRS

Cytochrome P450 2C19 = Cytochrome P450 2C19 (Homo sapiens, UniProt P33261); conditions: bti-tn-5b1-4; note: in other assays of this panel Not Active means under 50% inhibition at 10 µM
Sequence of Cytochrome P450 2C19 (P33261 whole entry): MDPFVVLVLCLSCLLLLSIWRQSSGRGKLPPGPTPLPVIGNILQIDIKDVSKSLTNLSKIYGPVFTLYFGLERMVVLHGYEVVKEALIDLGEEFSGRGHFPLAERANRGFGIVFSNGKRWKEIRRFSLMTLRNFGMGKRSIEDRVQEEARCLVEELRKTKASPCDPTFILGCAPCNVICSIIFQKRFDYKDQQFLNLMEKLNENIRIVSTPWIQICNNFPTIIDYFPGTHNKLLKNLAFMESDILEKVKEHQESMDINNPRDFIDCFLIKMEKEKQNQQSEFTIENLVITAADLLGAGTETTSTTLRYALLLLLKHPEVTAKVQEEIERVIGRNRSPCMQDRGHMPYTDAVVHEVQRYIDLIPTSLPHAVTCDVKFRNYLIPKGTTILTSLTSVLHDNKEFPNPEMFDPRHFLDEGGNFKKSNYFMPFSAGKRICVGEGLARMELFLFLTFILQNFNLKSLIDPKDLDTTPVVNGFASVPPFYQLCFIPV

[4] = target: Protein phosphatase 3 catalytic subunit alpha (Homo sapiens, UniProt Q08209); design: species or system Escherichia coli;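 note: inhibition of calcineurin (PP2B) enzyme activity, measured with DiFMUP as the substrate; in other assays of this panel Not Active means under 50% inhibition at 10 µM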

Sequence of Adenosine receptor A2a (P29274 whole entry): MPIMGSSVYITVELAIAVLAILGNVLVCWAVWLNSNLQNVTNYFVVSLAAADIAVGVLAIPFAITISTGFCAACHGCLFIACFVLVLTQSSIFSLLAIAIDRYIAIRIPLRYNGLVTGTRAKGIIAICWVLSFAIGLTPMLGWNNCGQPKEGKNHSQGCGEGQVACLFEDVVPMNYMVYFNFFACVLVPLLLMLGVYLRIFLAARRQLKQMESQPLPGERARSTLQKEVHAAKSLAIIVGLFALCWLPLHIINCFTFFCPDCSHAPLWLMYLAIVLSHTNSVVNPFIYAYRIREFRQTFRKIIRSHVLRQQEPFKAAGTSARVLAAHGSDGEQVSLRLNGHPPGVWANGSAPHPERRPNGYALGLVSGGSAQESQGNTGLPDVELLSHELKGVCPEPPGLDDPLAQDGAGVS

C[C@@H]1O[C@@H](O[C@@H]2C=C3CC[C@@H]4[C@H](CC[C@]5(C)[C@@H](c6ccc(=O)oc6)CC[C@]45O)[C@@]3(C)CC2)[C@H](O)[C@H](O)[C@H]1O [PROSCILLARIDIN]
Not Active: IC50 (Adenosine receptor A2a) | IC50 [1] | IC50 [2] | IC50 [3] | IC50 (Cytochrome P450 2C19) | Ki (Cytochrome P450 2C19) | IC50 [4]

Oc1cccc(O)c1O [PYROGALLOL]
Not Active: IC50 (Adenosine receptor A2a) | IC50 [1] | IC50 [2] | IC50 [3] | IC50 (Cytochrome P450 2C19) | Ki (Cytochrome P450 2C19) | IC50 [4]

AURANOFIN
Not Active: IC50 (Adenosine receptor A2a) | Ki (Adenosine receptor A2a) | IC50 [1] | Ki [1] | IC50 [2] | Ki [2] | IC50 [3] | Ki [3] | IC50 (Cytochrome P450 2C19) | Ki (Cytochrome P450 2C19) | IC50 [4] | Ki [4]

GADOPENTETATE DIMEGLUMINE
Not Active: IC50 (Adenosine receptor A2a) | Ki (Adenosine receptor A2a) | IC50 [1] | Ki [1] | IC50 [2] | Ki [2] | IC50 [3] | Ki [3] | IC50 (Cytochrome P450 2C19) | Ki (Cytochrome P450 2C19) | IC50 [4] | Ki [4]

GENTAMICIN
Not Active: IC50 (Adenosine receptor A2a) | Ki (Adenosine receptor A2a) | IC50 [1] | Ki [1] | IC50 [2] | Ki [2] | IC50 [3] | Ki [3] | IC50 (Cytochrome P450 2C19) | Ki (Cytochrome P450 2C19) | IC50 [4] | Ki [4]

GRAMICIDIN
Not Active: IC50 (Adenosine receptor A2a) | Ki (Adenosine receptor A2a) | IC50 [1] | Ki [1] | IC50 [2] | Ki [2] | IC50 [3] | Ki [3] | IC50 (Cytochrome P450 2C19) | Ki (Cytochrome P450 2C19) | IC50 [4] | Ki [4]

NYSTATIN
Not Active: IC50 (Adenosine receptor A2a) | Ki (Adenosine receptor A2a) | IC50 [1] | Ki [1] | IC50 [2] | Ki [2] | IC50 [3] | Ki [3] | IC50 (Cytochrome P450 2C19) | Ki (Cytochrome P450 2C19) | IC50 [4] | Ki [4]

From ChEMBL document CHEMBL1909046, “DrugMatrix in vitro pharmacology data”
